Data reported in patent US6967212B2, “Substituted azole acid derivatives useful as antidiabetic and antiobesity agents and method” (Bristol-Myers Squibb Company, priority 2001, dated 2005).
Marks after values point to notes of the source that are not given here.

Columns and labels:
[1] = biological target: T1, human PPARγ ligand binding domain (Homo sapiens, UniProt P37231); experiment: PPARγ ligand binding study with purified ligand binding domain; settings: competition with labeled PPARγ ligand BMS-compound A
T1 sequence (P37231 238-503 limits assumed): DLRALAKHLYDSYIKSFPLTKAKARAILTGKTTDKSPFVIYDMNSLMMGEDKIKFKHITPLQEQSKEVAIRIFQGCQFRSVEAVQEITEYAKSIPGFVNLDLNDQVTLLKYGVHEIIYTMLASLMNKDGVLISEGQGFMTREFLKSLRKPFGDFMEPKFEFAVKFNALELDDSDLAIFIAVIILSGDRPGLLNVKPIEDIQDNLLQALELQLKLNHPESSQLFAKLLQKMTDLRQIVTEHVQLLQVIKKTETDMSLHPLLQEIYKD
Excerpt: Compound Y is a compound synthesized by the scheme outlined in Example 1 herein.

[2] = biological target: T2, human PPARα ligand binding domain (Homo sapiens, UniProt Q07869); experiment: PPARα ligand binding study with purified ligand binding domain; settings: competition with labeled PPARα ligand BMS-compound B
T2 sequence (Q07869 239-466 limits assumed): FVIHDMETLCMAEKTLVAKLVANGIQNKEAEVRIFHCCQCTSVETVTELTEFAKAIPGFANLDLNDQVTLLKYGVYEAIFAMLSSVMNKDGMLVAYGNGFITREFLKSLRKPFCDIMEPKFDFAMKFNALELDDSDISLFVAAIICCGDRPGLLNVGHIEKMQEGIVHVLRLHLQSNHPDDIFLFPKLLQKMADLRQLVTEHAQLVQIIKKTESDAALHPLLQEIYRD
Excerpt: FIG. 1B: Illustrates the binding of a labeled authentic PPARα ligand (BMS-compound B) to human PPARα binding domain.
Compound Y is a compound synthesized by the scheme outlined in Example 1 herein. […] The in vitro ligand binding studies with purified ligand binding domain thus show the ability of Compound Y to bind potently to both PPARγ and PPARα. It is however, well known for the nuclear hormone receptor family of transcription factors that (PPARs are members of this family) that a compound which potently binds to (i.e. a ligand) can act as an agonist (ligand which activates) and an antagonist (ligand which inactivates the receptor).

[3] = test system: mouse 3T3-L1 pre-adipocytes; experiment: Inhibition of rosiglitazone induced differentiation of 3T3-L1 pre-adipocytes (glycerol release); format: cell-based; settings: rosiglitazone induced differentiation of 3T3-L1 cells
Method: PPARγ has been considered a major trigger for the adipocyte differentiation process (see Tontonoz et al., Current Biology, 571-576, 1995).
5×10^5 3T3-L1 cells per plate were added to 96 well plates and cultured in DMEM-high glucose and 10% FBS medium for two days, before induction. Cells were induced for 48 hr with 1 μm dexamethasone, 5 μg/ml insulin, and […] isobutylmethylxanthine (IBMX) in the same medium. […] After a total of 5 days incubation, 4 μl of media from each well were collected and diluted into 40 μl of H2O in 96 well ELISA plate, 300 μl of Triglycerides Blank Reagent (Bayer Diagnostics) was added into each well and incubated for 5 min at room temperature. […] The ED50 values were calculated using standard equations for mid-point of the activity inhibition curves.

[4] = biological target: PPARγ (Chlorocebus sabaeus, UniProt A0A0D9RBU3); experiment: Inhibition of rosiglitazone induced SEAP reporter transactivation in CV-1 cells; format: cell-based, primate; settings: read-out: ED50 for inhibition of rosiglitazone induced transactivation of SEAP gene, PPAR responsive SEAP reporter
Excerpt: The established CV-1 cells (primate kidney origin), that show expression of endogenous PPARγ, were stably transfected with a PPAR responsive secreted alkaline phosphatase (SEAP) reporter gene.
CV-1 cells (these cell express endogenous PPARγ gene) were transfected with a 3×PPRE-SEAP reporter gene DNA construct and stable colonies were selected, expanded and tested for responsiveness to compounds using standard protocols. SEAP reporter gene constructs were made by inserting 3 repeats of the rat fatty acid binding protein PPRE including the 7 nucleotides immediately 5′ to the SV40 early minimal promoter of pSEAP2 (Clontech). 1.2×10^6 CV-1/PPRE-SEAP cells were plated in a 96 well plate one day before compound addition. […] 150 μl aliquots of each concentration were delivered to two non-adjacent wells. […] Media was collected in fresh 96 well plates 40 hrs following incubation with compounds and assayed for SEAP activity. […] The plate was incubated for 5′ in the dark, and then the fluorescence measured in a CytoFluor series 4000 plate reader (Perseptive Biosystems): excitation filter, 450/50 nm; emission filter, 580/50 nm; 8 cycles, 1 minute/cycle, 3 reads/well/cycle. […] The ED50 values were calculated using standard equations for mid-point of the activity inhibition curves.

[5] = biological target: T3, PPARα (Homo sapiens, UniProt Q07869); experiment: PPARα dependent SEAP reporter transactivation in HepG2 cells; format: cell-based
T3 construct: HepG2 cells (human liver origin), that express endogenous PPARα gene were stably transfected with a PPAR responsive SEAP reporter gene; endogenous in cells; host or cells: HepG2 cells stably transfected with a PPAR responsive SEAP reporter
T3 sequence (Q07869 1-468): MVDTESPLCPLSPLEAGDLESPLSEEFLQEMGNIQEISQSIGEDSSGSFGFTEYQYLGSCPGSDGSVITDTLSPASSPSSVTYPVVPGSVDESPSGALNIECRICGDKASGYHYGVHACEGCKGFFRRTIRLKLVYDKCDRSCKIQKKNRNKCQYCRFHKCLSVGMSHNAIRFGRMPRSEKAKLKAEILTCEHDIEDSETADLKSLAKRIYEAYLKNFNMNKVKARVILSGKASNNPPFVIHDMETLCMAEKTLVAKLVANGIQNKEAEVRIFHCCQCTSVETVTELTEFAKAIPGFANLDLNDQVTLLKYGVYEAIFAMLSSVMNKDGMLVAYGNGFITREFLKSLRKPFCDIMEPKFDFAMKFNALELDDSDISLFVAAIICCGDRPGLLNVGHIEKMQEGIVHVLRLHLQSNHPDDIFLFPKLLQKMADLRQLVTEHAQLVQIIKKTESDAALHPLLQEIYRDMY
Excerpt: HepG2 cells (human liver origin), that express endogenous PPARα gene were stably transfected with a PPAR responsive SEAP reporter gene.
Reporter gene constructs were made by inserting either 3 repeats of the rat fatty acid binding protein PPRE including the 7 nucleotides immediately 5′, or 4 repeats of the gal4 response element upstream of the SV40 early minimal promoter of pSEAP2 (Clontech), 3×PPRE-SEAP and gal4-SEAP respectively. The chimeric receptor was made by cloning the cDNA encoding the ligand binding domain of human PPAR α in frame and 3′ to the gal4 DNA binding domain (amino acids 1-47) in the mammalian bicistronic expression vector pIRESlneo (Clontech), gal4-PPAR α. […] Following the incubation, media was removed, and endogenous phosphatases were inactivated as indicated above and SEAP activity in 25 μl aliquots of processed media was assayed in clear bottom, black 96 well plate (Falcon) by the addition of 100 μl Attophos reagent (Promega), incubation for 5 minutes in the dark at room temperature, and measuring the increase in fluorescence (excitation 450 nm, emission 580 nm) in a CytoFluor series 4000 plate reader (Perseptive Biosystems) 8 cycles, 1 minute/cycle. The relative rates of fluorescence emission were calculated as fold increase over DMSO control. […] The ED50 values were calculated using standard equations for mid-point of the activity curves.

[6] = test system: Gene expression in WAT; experiment: Gene expression profiling of white adipose tissue of treated db/db mice; format: in vivo; settings: obese diabetic db/db mice
Excerpt: Examples of such genes include adipophilin and keratinocyte fatty acid binding protein, the gene products of these genes are involved in intracellular fatty acid trafficking).
Adipose (fat) tissue is a major place of synthesis of PAI-1, a risk factor for thrombosis, angiotensinogen precursor, a risk factor for hypertension and renin, a risk factor for hypertension (see Ahima and Flier, TEM, 11: 327-332, 2000).

[7] = test system: obese diabetic db/db mice; experiment: Plasma glucose and lipids in treated obese diabetic db/db mice; format: in vivo; settings: 3 mg/kg/day
Excerpt: As illustrated in Table 3 treatment of obese diabetic db/db mice with the dual PPARγ antagonist/PPARα agonist Compound Y results in no significant change in plasma glucose and a significant decrease in plasma triglycerides and free fatty acids levels. As indicated before, changes in lipid and glycemic conditions are two significant potential concerns of reducing PPARγ activity. Based on the study described here it is concluded that obese mammals can be safely treated with a dual PPARγ antagonist/PPARα agonist. The reduction in plasma triglycerides and free fatty acids are likely due to the […] activity of Compound Y.

[8] = test system: diet induced obese mice; experiment: Diet induced obese mice: body composition, plasma and liver parameters; format: in vivo
Excerpt: As indicated before, changes in lipid and glycemic conditions are two potential concerns of reducing PPARγ activity. Based on the study described here it is concluded that safe reduction of fat mass in an obese diabetic mammal (including human) is possible through administration of a dual PPARγ antagonist/PPARα agonist. This feature is in contrast to the observed hyperlipidemia and hyperglycemia in lipodystrophic patients and in patients with severe mutations in PPARγ gene.
In obese mice, as in obese human, the liver lipid level is elevated. Often, this is accompanied by an increase in plasma liver enzyme ALT level indicating to liver damage. Upon treatment with dual PPARγ antagonist/PPARα agonist Compound Y there was a substantial reduction in liver triglyceride content, although not reaching statistical significance, which was accompanied by a significant reduction in plasma liver enzyme ALT levels. Both these changes are indicative of improvement in liver function as a result of stimulation of PPARα mediated fatty acid oxidation and reduction of lipid synthesis leading to reduced lipid content (see. Torra et al., Current Opinion in Lipidology, 10: 151-159, 1999; Kersten et al., Nature, 405: 421424, 2000).
C57BL/6 mice were fed a diet rich in fat (40%) and sucrose (40%) (see, York {Genetic models of obesity} and Sclafani {Dietary models of obesity}, both in Obesity, Bjorntorp and Brodoff eds. JB Lippincott Company, 1992; McIntosh and Pederson; McNeill. eds. CRC press LLC, 337-398, 1999; Farrelly et al., Proc. Natl. Acad. Sci. 96: 14511-14516, 1999). Under these dietary conditions, C57BL/6 mice gain considerable body weight and become obese. These mice were treated with a dual PPARγ antagonist/PPARα agonist (dose 0.01 to 100 mg/kg/day), administered in a pharmacologically acceptable vehicle (such as but not limited to, 5% CM-cellulose) through orally, intravenous, subcutaneous or intraportal injection, or mixed with food or water, acutely or over an extended period of time. During the course of the study, various parameters such as water and food consumption, body weight gain, body composition by dual emission X-ray analyzer (DEXA, this instrument accurately measures body fat mass, body lean muscle mass and body bone mineral content), body temperature was measured by standard methods. Through tail vein bleeding, blood was collected in heparin-EDTA coated tubes to prevent clotting and blood plasma was separated and analyzed for glucose, free fatty acids, triglycerides and cholesterol using reagent kits available from Roche Diagnostics in a COBAS-MIRA instrument. Insulin and leptin are measured by commercially available ELISA kits. Compounds that act to reduce body weight and or decrease glucose were selected. At the end of the treatment period animals were euthanized by brief exposure to CO2 and internal organs such as liver and white adipose tissue were harvested for additional analysis. These analyses may include, but not limited to, determination of lipid content, and effect on various PPARγ and PPARα target gene expression.

[9] = 10 mg/kg/day once a day, 3 weeks
[10] = 10 mg/kg/day, 3 weeks, P < 0.05
[11] = 3 weeks at 10 mg/kg/day, once a day

Chain of PPARγ (A0A0D9RBU3 entry or part of it): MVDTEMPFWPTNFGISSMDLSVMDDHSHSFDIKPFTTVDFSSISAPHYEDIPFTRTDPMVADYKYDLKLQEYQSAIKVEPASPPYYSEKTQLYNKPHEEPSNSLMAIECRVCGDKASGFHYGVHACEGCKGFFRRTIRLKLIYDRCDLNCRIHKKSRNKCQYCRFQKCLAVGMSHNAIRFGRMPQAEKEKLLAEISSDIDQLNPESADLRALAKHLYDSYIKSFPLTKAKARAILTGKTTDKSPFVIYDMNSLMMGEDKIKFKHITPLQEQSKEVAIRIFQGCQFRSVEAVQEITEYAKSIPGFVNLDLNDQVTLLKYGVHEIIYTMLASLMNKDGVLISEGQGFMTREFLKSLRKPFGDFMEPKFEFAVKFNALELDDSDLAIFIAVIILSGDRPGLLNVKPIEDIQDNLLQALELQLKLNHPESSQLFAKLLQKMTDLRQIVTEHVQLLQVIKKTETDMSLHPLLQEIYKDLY

Cc1oc(-c2ccccc2)nc1CCOc1cccc(Cc2nn(-c3ccccc3)nc2C(=O)O)c1 [Compound Y]
IC50 [1]: 0.069 µM | IC50 [2]: 0.069 µM | ED50 for inhibition of differentiation [3]: 9.9 µM | EC50 [4]: 1.5 µM | EC50 [5]: 0.587 µM | Adipophilin gene expression in WAT [6]: 4.1 | Angiotensinogen precursor gene expression in WAT [6]: 0.46 | Glycerol-3 PO4 dehydrogenase gene expression in WAT [6]: 0.39 | HMGic gene expression in WAT [6]: 2.2 | Keratinocyte fatty acid binding protein gene expression in WAT [6]: 3.3 | PAI-1 gene expression in WAT [6]: 0.45 | Free fatty acids [7]: 0.76 ± 0.12 meq/L | Glucose [7]: 683.0 ± 25.2 mg/dL | Glucose, change versus vehicle [7]: −13% | Triglyceride [7]: 145.3 ± 12.5 mg/dL | Free fatty acids, change versus vehicle ([7]; p < 0.05): −36%* | Triglyceride, change versus vehicle ([7]; p < 0.05): −45%* | plasma lipid (free fatty acids, triglycerides and cholesterol) and glycemic (glucose and insulin) parameters (in words) [8]: very little change | Liver triglycerides ([8]; 10 mg/kg/day): 55.4 ± 7.0 mg/g | % Fat body mass [8, 9]: 41.5 ± 1.8% | % Lean body mass [8, 9]: 56.0 ± 1.8% | % Fat body mass, change versus vehicle [8, 10]: (−12%)* | % Lean body mass, change versus vehicle [8, 10]: (+11%)* | ALT, change versus vehicle ([8]; 10 mg/kg/day, P < 0.05): (−38%)* | Liver triglycerides, change versus vehicle ([8]; 10 mg/kg/day, not statistically significant): (−24%) | body weight (in words) [8, 11]: no significant reduction in body weight | increase in lean body mass [8, 11]: 14% | reduction of body fat mass [8, 11]: 15% | ALT ([8]; plasma, 10 mg/kg/day): 98.0 ± 12.6 IU/L | Cholesterol ([8]; plasma, 10 mg/kg/day): 270.4 ± 9.4 mg/dL | Glucose ([8]; plasma, 10 mg/kg/day): 260.7 ± 12.3 mg/dL | Insulin ([8]; plasma, 10 mg/kg/day): 8.2 ± 1.2 ng/mL | Triglyceride ([8]; plasma, 10 mg/kg/day): 105.5 ± 8.1 mg/dL

CCCCCCCC1SC(CC(=O)N(Cc2ccccc2)Cc2ccccc2)C(=O)N1CCCCc1ccc(C(=O)O)cc1 (stereo not drawn) [GW0072, reference compound]
IC50 [1]: 0.28 µM | ED50 for inhibition of differentiation [3]: 0.585 µM

CCCCCCCN(CCc1ccc(O[C@@](C)(CC)C(=O)O)cc1)C(=O)Nc1ccc(F)cc1F [GW-2331, reference compound]
IC50 [2]: 0.41 µM

CN(CCOc1ccc(CC2SC(=O)NC2=O)cc1)c1ccccn1 (stereo not drawn) [rosiglitazone, reference compound]
G-protein coupled receptor 26 gene expression in WAT [6]: 4.3 | Renin gene expression in WAT [6]: 13.9

BMS-250773 [reference compound]
EC50 [5]: 0.063 µM
